These are literature values, as cited in patent US12478584B1, “Atomoxetine hydrochloride oral suspension and use thereof” (OWP Pharmaceuticals, Inc., priority 2025, dated 2025).

For the data set the following is noted: standard temperature and pressure.

As to `CNCC[C@@H](Oc1ccccc1C)c1ccccc1.Cl` [Atomoxetine, (3R)—N-methyl-3-(2-methylphenoxy)-3-phenylpropan-1-amine], the water solubility is recorded as 27.8 mg/mL.
